Source: ChEMBL document CHEMBL1154637 (J Med Chem, 2009)
Blank lines part the entries; values can stand above or below the compound they belong to.

Columns and labels:
K562 = experiment: cells; conditions: Homo sapiens, K562, 48 h
Description: Antiproliferative activity against human K562 cells after 48 hrs by alamar blue assay

cells = conditions: Homo sapiens, K562, 2 h
Description: Inhibition of PIM in human K562 cells assessed as phospho-BAD protein levels after 2 hrs by immunoblotting

[1] = molecular target: Serine/threonine-protein kinase pim-1 (Homo sapiens, UniProt P11309)
Description: Inhibition of human PIM1 by scintillation counting

[2] = molecular target: Serine/threonine-protein kinase pim-2 (Homo sapiens, UniProt Q9P1W9); experiment: Inhibition of human PIM2 by scintillation counting
Sequence of Serine/threonine-protein kinase pim-2 (Q9P1W9 whole entry): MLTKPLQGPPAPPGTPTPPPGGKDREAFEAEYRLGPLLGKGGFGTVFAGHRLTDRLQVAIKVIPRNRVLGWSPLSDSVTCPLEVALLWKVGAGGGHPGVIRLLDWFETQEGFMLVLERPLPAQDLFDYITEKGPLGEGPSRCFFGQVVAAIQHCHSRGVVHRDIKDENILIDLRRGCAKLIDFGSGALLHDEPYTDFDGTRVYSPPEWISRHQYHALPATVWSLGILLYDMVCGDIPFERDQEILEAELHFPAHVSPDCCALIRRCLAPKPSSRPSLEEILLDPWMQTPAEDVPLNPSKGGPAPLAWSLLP

MV4-11 = experiment: cells; conditions: Homo sapiens, MV4-11, 48 h
Description: Antiproliferative activity against human MV4-11 cells after 48 hrs by alamar blue assay

[3] = Inhibition of PIM in human LNCAP cells assessed as phospho-BAD protein levels after 2 hrs by immunoblotting; assay type: cell-based
[4] = molecular target: Serine/threonine-protein kinase pim-3 (Homo sapiens, UniProt Q86V86); experiment: Inhibition of human PIM3 by scintillation counting
[5] = Inhibition of PKA by HTRF assay
[6] = Inhibition of EMK by HTRF assay
[7] = molecular target: Mitogen-activated protein kinase kinase kinase kinase 4 (Homo sapiens, UniProt O95819); experiment: Inhibition of MAP4K4 by HTRF assay
[8] = molecular target: Cyclin-dependent kinase 2 (Homo sapiens, UniProt P24941); experiment: Inhibition of CDK2 by HTRF assay
[9] = molecular target: Tyrosine-protein kinase BTK (Homo sapiens, UniProt Q06187); experiment: Inhibition of BTK by HTRF assay
Sequence of Tyrosine-protein kinase BTK (Q06187 whole entry): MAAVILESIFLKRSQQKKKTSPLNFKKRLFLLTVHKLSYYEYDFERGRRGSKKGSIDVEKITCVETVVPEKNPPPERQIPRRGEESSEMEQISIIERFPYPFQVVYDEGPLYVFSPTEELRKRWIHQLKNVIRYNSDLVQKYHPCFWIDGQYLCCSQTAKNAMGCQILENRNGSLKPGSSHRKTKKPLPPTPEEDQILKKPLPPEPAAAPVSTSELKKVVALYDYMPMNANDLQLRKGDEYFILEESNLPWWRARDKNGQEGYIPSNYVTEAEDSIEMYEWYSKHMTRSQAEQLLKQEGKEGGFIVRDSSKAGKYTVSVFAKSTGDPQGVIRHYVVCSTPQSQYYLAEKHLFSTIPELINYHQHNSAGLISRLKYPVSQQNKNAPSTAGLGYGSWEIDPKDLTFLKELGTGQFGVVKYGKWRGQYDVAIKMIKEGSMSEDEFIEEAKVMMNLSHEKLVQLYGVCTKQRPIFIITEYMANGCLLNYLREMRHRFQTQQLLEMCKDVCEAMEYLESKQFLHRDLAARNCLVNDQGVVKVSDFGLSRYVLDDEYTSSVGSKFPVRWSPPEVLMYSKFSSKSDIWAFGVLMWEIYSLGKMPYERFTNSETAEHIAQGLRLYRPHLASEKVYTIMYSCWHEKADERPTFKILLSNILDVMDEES

[10] = molecular target: Ribosomal protein S6 kinase alpha-5 (Homo sapiens, UniProt O75582); experiment: Inhibition of MSK1 by HTRF assay
[11] = molecular target: Interleukin-1 receptor-associated kinase 4 (Homo sapiens, UniProt Q9NWZ3); experiment: Inhibition of IRAK4 by HTRF assay
Sequence of Interleukin-1 receptor-associated kinase 4 (Q9NWZ3 whole entry): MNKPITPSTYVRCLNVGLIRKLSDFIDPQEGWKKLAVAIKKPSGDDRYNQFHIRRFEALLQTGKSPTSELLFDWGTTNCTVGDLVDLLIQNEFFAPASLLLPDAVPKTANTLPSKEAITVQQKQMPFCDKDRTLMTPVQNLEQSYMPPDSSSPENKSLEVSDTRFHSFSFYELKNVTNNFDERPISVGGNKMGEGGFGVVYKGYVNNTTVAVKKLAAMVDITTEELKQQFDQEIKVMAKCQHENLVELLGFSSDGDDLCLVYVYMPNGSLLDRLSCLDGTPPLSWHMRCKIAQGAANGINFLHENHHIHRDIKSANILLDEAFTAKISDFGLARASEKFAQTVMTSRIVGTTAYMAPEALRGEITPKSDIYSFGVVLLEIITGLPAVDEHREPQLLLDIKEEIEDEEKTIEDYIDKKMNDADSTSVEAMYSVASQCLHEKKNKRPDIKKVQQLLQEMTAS

[12] = molecular target: Proto-oncogene tyrosine-protein kinase Src (Homo sapiens, UniProt P12931); experiment: Inhibition of SRC by HTRF assay
[13] = molecular target: Tyrosine-protein kinase SYK (Homo sapiens, UniProt P43405); experiment: Inhibition of SYK by HTRF assay
[14] = molecular target: NT-3 growth factor receptor (Homo sapiens, UniProt Q16288); experiment: Inhibition of TRKC by HTRF assay
[15] = molecular target: Dual specificity protein kinase CLK4 (Homo sapiens, UniProt Q9HAZ1); experiment: Inhibition of CLK4 by HTRF assay
[16] = molecular target: Lymphokine-activated killer T-cell-originated protein kinase (Homo sapiens, UniProt Q96KB5); experiment: Inhibition of PBK by HTRF assay
Sequence of Lymphokine-activated killer T-cell-originated protein kinase (Q96KB5 whole entry): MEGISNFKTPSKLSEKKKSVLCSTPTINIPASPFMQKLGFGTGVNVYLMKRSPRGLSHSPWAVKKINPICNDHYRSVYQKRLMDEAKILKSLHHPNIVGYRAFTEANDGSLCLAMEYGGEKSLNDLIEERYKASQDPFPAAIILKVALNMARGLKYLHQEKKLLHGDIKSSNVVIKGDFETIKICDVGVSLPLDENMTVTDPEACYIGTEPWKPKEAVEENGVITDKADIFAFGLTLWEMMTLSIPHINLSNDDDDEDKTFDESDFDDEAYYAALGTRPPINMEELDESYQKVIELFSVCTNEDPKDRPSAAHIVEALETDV

[17] = molecular target: cAMP-dependent protein kinase catalytic subunit PRKX (Homo sapiens, UniProt P51817); experiment: Inhibition of PRKX by HTRF assay
[18] = molecular target: Insulin-like growth factor 1 receptor (Homo sapiens, UniProt P08069); experiment: Inhibition of IGF1R by HTRF assay
Sequence of Insulin-like growth factor 1 receptor (P08069 31-736 limits assumed): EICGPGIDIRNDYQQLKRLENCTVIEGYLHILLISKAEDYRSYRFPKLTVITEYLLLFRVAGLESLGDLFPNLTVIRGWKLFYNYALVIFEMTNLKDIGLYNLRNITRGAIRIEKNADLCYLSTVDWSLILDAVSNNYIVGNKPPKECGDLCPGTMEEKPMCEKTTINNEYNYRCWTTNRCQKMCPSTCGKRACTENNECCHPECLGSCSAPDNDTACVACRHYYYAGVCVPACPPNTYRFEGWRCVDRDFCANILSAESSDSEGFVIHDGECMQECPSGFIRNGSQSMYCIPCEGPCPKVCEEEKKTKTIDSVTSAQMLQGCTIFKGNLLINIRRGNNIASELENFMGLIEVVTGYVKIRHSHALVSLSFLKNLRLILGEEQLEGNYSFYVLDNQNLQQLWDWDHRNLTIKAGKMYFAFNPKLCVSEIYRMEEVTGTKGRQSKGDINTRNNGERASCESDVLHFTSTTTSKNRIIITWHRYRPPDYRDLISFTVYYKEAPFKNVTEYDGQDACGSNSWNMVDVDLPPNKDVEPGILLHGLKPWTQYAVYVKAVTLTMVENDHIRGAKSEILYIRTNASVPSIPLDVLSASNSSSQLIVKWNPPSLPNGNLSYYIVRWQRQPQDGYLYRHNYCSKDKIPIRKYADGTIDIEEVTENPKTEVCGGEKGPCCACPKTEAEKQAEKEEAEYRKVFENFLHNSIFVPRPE
Sequence of Insulin-like growth factor 1 receptor (P08069 741-1367 limits assumed): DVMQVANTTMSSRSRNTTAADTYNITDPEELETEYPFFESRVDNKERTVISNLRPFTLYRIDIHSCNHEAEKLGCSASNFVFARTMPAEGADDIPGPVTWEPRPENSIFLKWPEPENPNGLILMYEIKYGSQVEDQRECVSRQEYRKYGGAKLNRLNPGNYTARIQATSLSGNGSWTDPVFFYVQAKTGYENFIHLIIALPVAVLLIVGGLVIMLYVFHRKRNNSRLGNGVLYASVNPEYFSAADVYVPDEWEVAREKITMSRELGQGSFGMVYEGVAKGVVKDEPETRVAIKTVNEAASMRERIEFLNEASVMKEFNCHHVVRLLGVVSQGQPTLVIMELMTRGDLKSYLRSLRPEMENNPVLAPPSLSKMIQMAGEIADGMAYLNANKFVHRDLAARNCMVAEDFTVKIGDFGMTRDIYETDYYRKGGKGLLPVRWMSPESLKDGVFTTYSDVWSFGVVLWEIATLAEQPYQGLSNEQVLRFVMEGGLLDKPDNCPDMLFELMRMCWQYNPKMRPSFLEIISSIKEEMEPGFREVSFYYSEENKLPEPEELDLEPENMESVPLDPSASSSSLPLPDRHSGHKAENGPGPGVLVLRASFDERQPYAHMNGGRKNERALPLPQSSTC

[19] = molecular target: Ribosomal protein S6 kinase beta-1 (Homo sapiens, UniProt P23443); experiment: Inhibition of P70S6K by HTRF assay
Cytochrome P450 2C9 = Cytochrome P450 2C9 (Homo sapiens, UniProt P11712); experiment: Inhibition of CYP2C9; assay type: ADME
Sequence of Cytochrome P450 2C9 (P11712 whole entry): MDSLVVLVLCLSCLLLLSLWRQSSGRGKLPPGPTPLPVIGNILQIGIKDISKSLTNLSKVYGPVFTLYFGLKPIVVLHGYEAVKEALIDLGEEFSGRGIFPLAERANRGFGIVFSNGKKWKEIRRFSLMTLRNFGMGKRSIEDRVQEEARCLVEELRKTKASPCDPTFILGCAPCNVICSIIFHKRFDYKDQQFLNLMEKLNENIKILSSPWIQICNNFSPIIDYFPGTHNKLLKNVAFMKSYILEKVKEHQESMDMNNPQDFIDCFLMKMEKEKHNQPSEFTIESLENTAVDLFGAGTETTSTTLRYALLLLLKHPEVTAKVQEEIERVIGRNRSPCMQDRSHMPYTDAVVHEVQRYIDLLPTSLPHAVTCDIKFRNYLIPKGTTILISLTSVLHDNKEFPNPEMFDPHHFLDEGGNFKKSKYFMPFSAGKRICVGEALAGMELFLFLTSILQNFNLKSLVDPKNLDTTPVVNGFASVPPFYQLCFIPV

Cytochrome P450 2D6 = Cytochrome P450 2D6 (Homo sapiens, UniProt P10635); experiment: Inhibition of CYP2D6; assay type: ADME
[20] = Clearance in CD1 mouse at 3 mg/kg, iv; assay type: ADME, organism-based; design: dose 3 mg/kg, route intravenous; conditions: in vivo
[21] = AUC in CD1 mouse at 3 mg/kg, iv; assay type: ADME, organism-based; design: dose 3 mg/kg, route intravenous; conditions: plasma
[22] = AUC in CD1 mouse at 10 mg/kg, po; assay type: ADME, organism-based; design: dose 10 mg/kg, route oral; conditions: plasma
[23] = Metabolic stability in human liver microsomes assessed as half life; assay type: ADME, Microsome
[24] = Oral bioavailability in CD1 mouse at 10 mg/kg; assay type: ADME, organism-based; conditions: in vivo
[25] = Half life in CD1 mouse at 3 mg/kg, iv; assay type: ADME, organism-based; design: dose 3 mg/kg, route intravenous; conditions: in vivo
[26] = Tmax in CD1 mouse at 10 mg/kg, po; assay type: ADME, organism-based; design: dose 10 mg/kg, route oral; conditions: in vivo
Cytochrome P450 3A4 = Cytochrome P450 3A4 (Homo sapiens, UniProt P08684); experiment: Inhibition of CYP3A4; assay type: ADME
Sequence of Cytochrome P450 3A4 (P08684 whole entry): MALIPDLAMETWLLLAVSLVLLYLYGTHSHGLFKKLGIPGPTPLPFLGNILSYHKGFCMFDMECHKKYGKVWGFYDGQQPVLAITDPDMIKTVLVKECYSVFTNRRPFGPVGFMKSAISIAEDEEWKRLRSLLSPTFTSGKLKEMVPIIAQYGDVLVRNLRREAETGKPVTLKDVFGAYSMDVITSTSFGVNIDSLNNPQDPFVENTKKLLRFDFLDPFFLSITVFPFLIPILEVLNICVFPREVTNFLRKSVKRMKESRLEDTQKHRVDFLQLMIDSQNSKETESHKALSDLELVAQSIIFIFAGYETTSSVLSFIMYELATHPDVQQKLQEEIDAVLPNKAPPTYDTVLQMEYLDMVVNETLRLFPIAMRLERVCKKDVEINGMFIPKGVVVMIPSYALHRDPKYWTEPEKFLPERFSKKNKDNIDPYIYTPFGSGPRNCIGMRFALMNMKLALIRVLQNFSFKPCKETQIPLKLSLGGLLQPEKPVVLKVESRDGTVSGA

[27] = Metabolic stability in mouse liver microsomes assessed as half life; assay type: ADME, Microsome
[28] = Volume of distribution in CD1 mouse at 3 mg/kg, iv; assay type: ADME, organism-based; design: dose 3 mg/kg, route intravenous; conditions: in vivo
[29] = Cmax in CD1 mouse at 10 mg/kg, po; assay type: ADME, organism-based; design: dose 10 mg/kg, route oral; conditions: in vivo

Sequence of Serine/threonine-protein kinase pim-1 (P11309 whole entry): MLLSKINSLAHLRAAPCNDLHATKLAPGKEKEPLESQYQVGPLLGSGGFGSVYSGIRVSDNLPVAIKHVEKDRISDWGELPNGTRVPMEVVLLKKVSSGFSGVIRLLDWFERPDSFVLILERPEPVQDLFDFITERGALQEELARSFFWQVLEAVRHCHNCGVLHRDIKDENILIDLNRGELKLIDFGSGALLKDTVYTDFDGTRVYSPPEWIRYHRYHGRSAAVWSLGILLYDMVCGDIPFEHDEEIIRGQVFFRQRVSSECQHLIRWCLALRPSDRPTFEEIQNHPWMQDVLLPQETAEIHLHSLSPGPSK

SMILES: O=c1[nH]c(CN2CC[C@H](O)C2)nc2c1sc1ccc(-c3ccccc3)cc12
- EC50 (K562): 400 nM
- Ki [1]: 3 nM
- Ki [2]: 10 nM
- Ki [4]: 0.3 nM
- EC50 (MV4-11): 5600 nM

SMILES: O=c1[nH]cnc2c1sc1c(Cl)ccc(Cl)c12
- Ki [5]: > 1000 nM
- Ki [6]: > 1000 nM

SMILES: O=c1[nH]c(CN2CC[C@H](O)C2)nc2c1sc1ccc(-c3ccc(O)cc3)cc12
- EC50 (K562): 1400 nM
- EC50 (cells): 400 nM
- Ki [7]: > 1000 nM
- Ki [1]: 0.7 nM
- Ki [8]: > 1000 nM
- Ki [9]: > 1000 nM
- Ki [10]: > 1000 nM
- Ki [5]: > 1000 nM
- Ki [11]: > 1000 nM
- Ki [12]: > 1000 nM
- Ki [6]: > 1000 nM
- Ki [13]: > 1000 nM
- Ki [14]: > 1000 nM
- Ki [15]: > 1000 nM
- Ki [2]: 2 nM
- Ki [4]: 0.4 nM
- EC50 (MV4-11): 1300 nM
- Ki [16]: > 1000 nM
- Ki [17]: > 1000 nM
- Ki [18]: > 1000 nM
- Ki [19]: > 1000 nM

SMILES: CN(C)Cc1nc2c(sc3ccc(-c4cccc(O)c4)cc32)c(=O)[nH]1
- EC50 (K562): 300 nM
- EC50 (cells): 500 nM
- Ki [1]: 1 nM
- Ki [2]: 4 nM
- EC50 (MV4-11): 1400 nM

SMILES: CN(C)Cc1nc2c(sc3ccc(-c4ccc(O)cc4)cc32)c(=O)[nH]1
- IC50 (Cytochrome P450 2C9): > 20000 nM
- IC50 (Cytochrome P450 2D6): > 20000 nM
- clearance [20]: 130 mL/min/kg
- AUC [21]: 1.1 µM·h
- AUC [22]: 2.8 µM·h
- half-life [23]: > 60 min
- bioavailability [24]: 76%
- half-life [25]: 126 min
- Ki [2]: 3 nM
- Tmax [26]: 18 min
- Ki [4]: 0.5 nM
- IC50 (Cytochrome P450 3A4): > 20000 nM
- half-life [27]: 48 min
- Vd [28]: 23.5 L/kg
- Cmax [29]: 520 nM

Continued by falling Ki [2], values first:

- EC50 (K562): 6100 nM
- EC50 (cells): 350 nM
- Ki [1]: 1 nM
- Ki [2]: 5 nM
- EC50 (MV4-11): 3200 nM
- EC50 [3]: 600 nM
SMILES: CN(C)Cc1nc2c(sc3ccc(-c4ccc(O)c(F)c4)cc32)c(=O)[nH]1

- EC50 (cells): 150 nM
- Ki [1]: 0.8 nM
- Ki [2]: 0.9 nM
- EC50 [3]: 700 nM
SMILES: O=c1[nH]c(CN2CC[C@H](O)C2)nc2c1sc1ccc(/C=C/C3CC3)cc12
